{"source": "PubChem BioAssay AID296", "about": "(DTP/NCI, 2004)", "test_system": "MX-1 breast xenograft, nude mice, tumor weight T/C", "assay": "NCI In Vivo Anticancer Drug Screen. Data for tumor model Human Mammary Carcinoma MX-1 Xenograft (intrarenal inoculation) in NU/NU Swiss (nude) mice", "details": "endpoint: mean tumor weight change, higher = larger tumour", "how_it_was_run": "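Antitumour effect measured in vivo against vehicle controls, expressed as T/C.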", "key": {"[1]": {"details": "dose: 100.0 mg/kg/injection, schedule: Q04DX003 (sc), vehicle: distilled water + Tween-80"}, "[2]": {"details": "dose: 400.0 mg/kg/injection, schedule: Q04DX003 (sc), vehicle: distilled water + Tween-80"}, "[3]": {"details": "dose: 800.0 mg/kg/injection, schedule: Q04DX003 (sc), vehicle: distilled water + Tween-80"}, "[4]": {"details": "dose: 300.0 mg/kg/injection, schedule: Q04DX003 (sc), vehicle: saline with Tween-80"}, "[5]": {"details": "dose: 600.0 mg/kg/injection, schedule: Q04DX003 (sc), vehicle: saline with Tween-80"}, "[6]": {"details": "dose: 1200.0 mg/kg/injection, schedule: Q04DX003 (sc), vehicle: saline with Tween-80"}, "[7]": {"details": "dose: 200.0 mg/kg/injection, schedule: Q04DX003 (sc), vehicle: Klucel (hydroxypropylcellulose) (HPC)"}, "[8]": {"details": "dose: 400.0 mg/kg/injection, schedule: Q04DX003 (sc), vehicle: Klucel (hydroxypropylcellulose) (HPC)"}, "[9]": {"details": "dose: 300.0 mg/kg/injection, schedule: Q04DX003 (sc), vehicle: water"}}, "note": "Where “and” joins values, the source holds several entries; their conditions need not be identical. Identical values can stand only once. Records with an inconclusive call do not appear.", "data": [{"compound": "CNC(=O)OCc1c(COC(=O)NC)c(-c2ccccc2)n(C)c1-c1ccccc1", "values": [{"measurement": "T/C", "setting": "[1]", "result": "121 % of control"}, {"measurement": "T/C", "setting": "dose: 200.0 mg/kg/injection, schedule: Q04DX003 (sc), vehicle: distilled water + Tween-80", "result": "51 % of control"}, {"measurement": "T/C", "setting": "[2]", "result": "78 % of control"}, {"measurement": "T/C", "setting": "[3]", "result": "74 % of control"}]}, {"compound": "C=CCNc1nc2c(s1)CCc1cc(OC)c(OC)cc1-2", "values": [{"measurement": "T/C", "setting": "[4]", "result": "92 % of control"}, {"measurement": "T/C", "setting": "[5]", "result": "96 % of control"}, {"measurement": "T/C", "setting": "[6]", "result": "80 % of control"}]}, {"compound": "CCC(=O)O[C@H]1CC[C@H]2[C@@H]3CCC4=CC(=O)CC[C@]4(C)[C@H]3CC[C@]12C", "values": [{"measurement": "T/C", "setting": "dose: 300.0 mg/kg/injection, schedule: Q04DX003 (sc), vehicle: Klucel (hydroxypropylcellulose) (HPC)", "result": "76 % of control"}, {"measurement": "T/C", "setting": "dose: 600.0 mg/kg/injection, schedule: Q04DX003 (sc), vehicle: Klucel (hydroxypropylcellulose) (HPC)", "result": "88 % of control"}, {"measurement": "T/C", "setting": "dose: 1200.0 mg/kg/injection, schedule: Q04DX003 (sc), vehicle: Klucel (hydroxypropylcellulose) (HPC)", "result": "74 % of control"}, {"measurement": "T/C", "setting": "dose: 2400.0 mg/kg/injection, schedule: Q04DX003 (sc), vehicle: Klucel (hydroxypropylcellulose) (HPC)", "result": "115 % of control"}]}, {"compound": "O=Cc1ccccc1", "values": [{"measurement": "T/C", "setting": "[7]", "result": "96 % of control"}, {"measurement": "T/C", "setting": "[8]", "result": "92 % of control"}, {"measurement": "T/C", "setting": "dose: 800.0 mg/kg/injection, schedule: Q04DX003 (sc), vehicle: Klucel (hydroxypropylcellulose) (HPC)", "result": "85 % of control"}]}, {"compound": "CCNC(=O)[B-][N+](C)(C)C", "values": [{"measurement": "T/C", "setting": "dose: 100.0 mg/kg/injection, schedule: Q04DX003 (sc), vehicle: Klucel (hydroxypropylcellulose) (HPC)", "result": "115 % of control"}, {"measurement": "T/C", "setting": "[7]", "result": "92 % of control"}, {"measurement": "T/C", "setting": "[8]", "result": "74 % of control"}]}, {"compound": "OCC1OC(n2cnc3c2NC=NC[C@H]3O)CC1O", "note": "(stereo partly specified)", "values": [{"measurement": "T/C", "setting": "dose: 1.0 mg/kg/injection, schedule: Q01DX010 (sc), vehicle: water", "result": "124 % of control"}, {"measurement": "T/C", "setting": "dose: 2.0 mg/kg/injection, schedule: Q01DX010 (sc), vehicle: water", "result": "41 % of control"}, {"measurement": "T/C", "setting": "dose: 8.0 mg/kg/injection, schedule: Q01DX010 (sc), vehicle: water", "result": "28 % of control"}]}, {"compound": "NC1(C(=O)O)CCCC1", "values": [{"measurement": "T/C", "setting": "dose: 12.5 mg/kg/injection, schedule: Q01DX010 (sc), vehicle: saline", "result": "103 % of control"}, {"measurement": "T/C", "setting": "dose: 50.0 mg/kg/injection, schedule: Q01DX010 (sc), vehicle: saline", "result": "25 % of control and 41 % of control"}, {"measurement": "T/C", "setting": "dose: 100.0 mg/kg/injection, schedule: Q01DX010 (sc), vehicle: saline", "result": "7 % of control and 8 % of control"}]}, {"compound": "CC(=O)Oc1c[nH]c(=O)[nH]c1=O", "values": [{"measurement": "T/C", "setting": "[1]", "result": "117 % of control"}, {"measurement": "T/C", "setting": "[2]", "result": "97 % of control"}, {"measurement": "T/C", "setting": "[3]", "result": "95 % of control"}, {"measurement": "T/C", "setting": "dose: 1600.0 mg/kg/injection, schedule: Q04DX003 (sc), vehicle: distilled water + Tween-80", "result": "58 % of control"}]}, {"compound": "BrC1CC(Br)c2c1c1c(c3c2C(Br)CC3Br)C(Br)CC1Br", "note": "(stereo unspecified)", "values": [{"measurement": "T/C", "setting": "[9]", "result": "92 % of control"}, {"measurement": "T/C", "setting": "dose: 600.0 mg/kg/injection, schedule: Q04DX003 (sc), vehicle: water", "result": "104 % of control"}, {"measurement": "T/C", "setting": "dose: 1200.0 mg/kg/injection, schedule: Q04DX003 (sc), vehicle: water", "result": "120 % of control"}, {"measurement": "T/C", "setting": "dose: 2400.0 mg/kg/injection, schedule: Q04DX003 (sc), vehicle: water", "result": "50 % of control"}]}, {"compound": "COc1ccc2c(c1)CCn1c(C)c(COC(=O)NC(C)C)c(COC(=O)NC(C)C)c1-2", "values": [{"measurement": "T/C", "setting": "dose: 150.0 mg/kg/injection, schedule: Q04DX003 (sc), vehicle: distilled water + Tween-80", "result": "6 % of control"}, {"measurement": "T/C", "setting": "dose: 300.0 mg/kg/injection, schedule: Q04DX003 (sc), vehicle: distilled water + Tween-80", "result": "3 % of control"}, {"measurement": "T/C", "setting": "dose: 600.0 mg/kg/injection, schedule: Q04DX003 (sc), vehicle: distilled water + Tween-80", "result": "-100 % of control"}, {"measurement": "T/C", "setting": "dose: 1200.0 mg/kg/injection, schedule: Q04DX003 (sc), vehicle: distilled water + Tween-80", "result": "-100 % of control"}]}, {"compound": "CCN1/C(=C/C=C/C=C\\C=C\\c2sc3ccc4ccccc4c3[n+]2CC)Sc2ccc3ccccc3c21", "values": [{"measurement": "T/C", "setting": "dose: 100.0 mg/kg/injection, schedule: Q04DX003 (sc), vehicle: saline with Tween-80", "result": "104 % of control"}, {"measurement": "T/C", "setting": "dose: 200.0 mg/kg/injection, schedule: Q04DX003 (sc), vehicle: saline with Tween-80", "result": "89 % of control"}, {"measurement": "T/C", "setting": "dose: 400.0 mg/kg/injection, schedule: Q04DX003 (sc), vehicle: saline with Tween-80", "result": "101 % of control"}, {"measurement": "T/C", "setting": "dose: 800.0 mg/kg/injection, schedule: Q04DX003 (sc), vehicle: saline with Tween-80", "result": "93 % of control"}]}, {"compound": "O=C(Nc1nncs1)c1cccs1", "values": [{"measurement": "T/C", "setting": "[4]", "result": "98 % of control"}, {"measurement": "T/C", "setting": "[5]", "result": "177 % of control"}, {"measurement": "T/C", "setting": "[6]", "result": "115 % of control"}, {"measurement": "T/C", "setting": "dose: 2400.0 mg/kg/injection, schedule: Q04DX003 (sc), vehicle: saline with Tween-80", "result": "65 % of control"}]}, {"compound": "O=C(Nc1ccc(C2=NCCN2)cc1)c1ccc(C(=O)Nc2ccc(C3=NCCN3)cc2)c(Cl)c1", "values": [{"measurement": "T/C", "setting": "dose: 75.0 mg/kg/injection, schedule: Q04DX003 (sc), vehicle: water", "result": "81 % of control"}, {"measurement": "T/C", "setting": "dose: 150.0 mg/kg/injection, schedule: Q04DX003 (sc), vehicle: water", "result": "49 % of control"}, {"measurement": "T/C", "setting": "[9]", "result": "21 % of control"}]}]}
